Results reported in patent publication US10889543B2, “Fine-tune modulators of neuronal excitability for neuropsychiatric disorders” (THE BOARD OF REGENTS OF THE UNIVERSITY OF TEXAS SYSTEM, priority 2016, dated 2021).
Residues, ends and D or L forms follow the SMILES beside them. *: point of attachment. Cbz = O=C(OCc1ccccc1)*; Boc = CC(C)(C)OC(=O)*

Tests used:
[1] = biological target: T1, Nav1.1 channels (Homo sapiens, UniProt P35498); test: Patch clamp of Na+ currents in Nav1.1 channels; format: cell-based
T1 construct: expressed in transfected cells
Procedure: The role of ZL0181 in regulating Nav1.1 and Nav1.2 channels was also investigated.
(§1) HEK-Nav1.1, […] HEK-Nav1.6 were maintained in medium composed of equal volumes of DMEM and F-12 (Invitrogen) supplemented with 0.05% glucose, 0.5 mm pyruvate, 10% fetal bovine serum, 100 units/ml penicillin, 100 μg/ml streptomycin incubated at 37° C. with 5% CO2. For selection of Nav1.1 and Nav1.2, 500 μg/ml G418 (Invitrogen) was used, and for selection of Nav1.6, 80 μg/ml G418 (Invitrogen) was used. Cells were transfected according to manufacturer's instructions at 90-100% confluency using Lipofectamine 2000 (Invitrogen). See e.g., Shavkunov, A., et al. Assay and drug development technologies 10(2):148-160 (2012).
(§2) Detailed methods for path-clamp experiments is known in the art. See e.g., Ali, S. R., et al., Journal of Biological Chemistry 291:11268 (2016).

[2] = system: nucleus accumbens medium spiny neurons; test: Ex vivo whole-cell patch clamp of neuronal firing in brain tissue slices; format: cell-based, mice
From the text: It is known in the art that nucleus accumbens plays a critical role in reinforcement-associated learning and in addiction-related behavior. See e.g., Woodruff-Pak, D. S., et al., Behavioral neuroscience 120:229-240 (2006); McKinney, B. C., et al., Genes, brain, and behavior 7:629-638 (2008). It has been shown that Nav1.6 channels are expressed at the nucleus accumbens medium spiny neurons. Shah, B. S., et al., The Journal of Physiology 534(Pt 3):763-776 (2001). The effect of ZL0181 on neuronal firing along with active and passive properties was tested using whole-cell patch clamp techniques in brain tissue slices. Nucleus accumbens medium spiny neurons (MNS) were treated with either DMSO (0.05×) or ZL0181 (50 μM) for one hour in an incubation chamber before being transferred to submerge experimental chamber perfused with oxygenated artificial cerebrospinal fluid for patch clamp experiments. […] For instance, at current step of 150 pA the number of spikes in DMSO treated MSNs was 18.4±1.3, n=8 versus 6.9±2.3, n=10 in ZL0181 treated MSNs; p<0.005 with Student t-test (FIG. 4B, Chart C). To test the mechanisms underlying neuronal firing reduction and related to sodium channels activity, action potential voltage and current thresholds were measured.
Coronal nucleus accumbens slices were prepared from FGF14−/− or wild type mice either treated with ZL0181 or vehicle control. Evoked action potentials were recorded in regular ASCF solution at 30-31° C. using Axopatch 200B and 700B amplifiers (Molecular Devices, Union City, Calif.). Recordings were filtered at 2 kHz and digitized at 10-20 kHz using a Digidata 1320 analog-to-digital interface and pClamp9 acquisition software (Molecular Devices, Union City, Calif.). Patch pipettes (4-6 MΩ) were prepared from borosilicate glass using a Narishige PC-10 vertical puller (Narishige International Inc., East Meadow, N.Y.). The extracellular bath solution contained (in mM) 130 NaCl, 3.5 KCl, 10 glucose, 1.5 MgCl2, 1.4 CaCl2, 23 NaHCO3, 1.25 NaH2PO4, osmolarity 300-310, pH 7.4, and the intracellular recording solution contained (in mM) 120 CH3KO3S, 10 KCl, 10 HEPES, 10 glucose, 2 MgCl2, 0.5 EGTA, 2 MgATP, and 0.5 NaGTP, osmolarity 280-290, pH 7.3. Upon forming a whole-cell connection, artificial cerebrospinal fluid containing 10 μM bicucilline (Tocris Bioscience), 30 μM NBQX (Tocris Bioscience), and 100 μM D-APV (Tocris Bioscience) was perfused into the bath solution in order to block synaptic transmission.
After seal formation and membrane rupture, action potential trains were evoked with current step protocol injections of 10 pA increment.

[3] = biological target: T2, Nav1.6 channels (Homo sapiens, UniProt Q9UQD0); test: Whole-cell patch clamp of Na+ currents in HEK-Nav1.6 cells expressing GFP (Nav1.6 channels alone); format: cell-based
T2 construct: expressed in transfected cells; host or cells: HEK-Nav1.6 (HEK293 stably expressing Nav1.6, G418 selection)
T2 sequence (Q9UQD0 whole entry): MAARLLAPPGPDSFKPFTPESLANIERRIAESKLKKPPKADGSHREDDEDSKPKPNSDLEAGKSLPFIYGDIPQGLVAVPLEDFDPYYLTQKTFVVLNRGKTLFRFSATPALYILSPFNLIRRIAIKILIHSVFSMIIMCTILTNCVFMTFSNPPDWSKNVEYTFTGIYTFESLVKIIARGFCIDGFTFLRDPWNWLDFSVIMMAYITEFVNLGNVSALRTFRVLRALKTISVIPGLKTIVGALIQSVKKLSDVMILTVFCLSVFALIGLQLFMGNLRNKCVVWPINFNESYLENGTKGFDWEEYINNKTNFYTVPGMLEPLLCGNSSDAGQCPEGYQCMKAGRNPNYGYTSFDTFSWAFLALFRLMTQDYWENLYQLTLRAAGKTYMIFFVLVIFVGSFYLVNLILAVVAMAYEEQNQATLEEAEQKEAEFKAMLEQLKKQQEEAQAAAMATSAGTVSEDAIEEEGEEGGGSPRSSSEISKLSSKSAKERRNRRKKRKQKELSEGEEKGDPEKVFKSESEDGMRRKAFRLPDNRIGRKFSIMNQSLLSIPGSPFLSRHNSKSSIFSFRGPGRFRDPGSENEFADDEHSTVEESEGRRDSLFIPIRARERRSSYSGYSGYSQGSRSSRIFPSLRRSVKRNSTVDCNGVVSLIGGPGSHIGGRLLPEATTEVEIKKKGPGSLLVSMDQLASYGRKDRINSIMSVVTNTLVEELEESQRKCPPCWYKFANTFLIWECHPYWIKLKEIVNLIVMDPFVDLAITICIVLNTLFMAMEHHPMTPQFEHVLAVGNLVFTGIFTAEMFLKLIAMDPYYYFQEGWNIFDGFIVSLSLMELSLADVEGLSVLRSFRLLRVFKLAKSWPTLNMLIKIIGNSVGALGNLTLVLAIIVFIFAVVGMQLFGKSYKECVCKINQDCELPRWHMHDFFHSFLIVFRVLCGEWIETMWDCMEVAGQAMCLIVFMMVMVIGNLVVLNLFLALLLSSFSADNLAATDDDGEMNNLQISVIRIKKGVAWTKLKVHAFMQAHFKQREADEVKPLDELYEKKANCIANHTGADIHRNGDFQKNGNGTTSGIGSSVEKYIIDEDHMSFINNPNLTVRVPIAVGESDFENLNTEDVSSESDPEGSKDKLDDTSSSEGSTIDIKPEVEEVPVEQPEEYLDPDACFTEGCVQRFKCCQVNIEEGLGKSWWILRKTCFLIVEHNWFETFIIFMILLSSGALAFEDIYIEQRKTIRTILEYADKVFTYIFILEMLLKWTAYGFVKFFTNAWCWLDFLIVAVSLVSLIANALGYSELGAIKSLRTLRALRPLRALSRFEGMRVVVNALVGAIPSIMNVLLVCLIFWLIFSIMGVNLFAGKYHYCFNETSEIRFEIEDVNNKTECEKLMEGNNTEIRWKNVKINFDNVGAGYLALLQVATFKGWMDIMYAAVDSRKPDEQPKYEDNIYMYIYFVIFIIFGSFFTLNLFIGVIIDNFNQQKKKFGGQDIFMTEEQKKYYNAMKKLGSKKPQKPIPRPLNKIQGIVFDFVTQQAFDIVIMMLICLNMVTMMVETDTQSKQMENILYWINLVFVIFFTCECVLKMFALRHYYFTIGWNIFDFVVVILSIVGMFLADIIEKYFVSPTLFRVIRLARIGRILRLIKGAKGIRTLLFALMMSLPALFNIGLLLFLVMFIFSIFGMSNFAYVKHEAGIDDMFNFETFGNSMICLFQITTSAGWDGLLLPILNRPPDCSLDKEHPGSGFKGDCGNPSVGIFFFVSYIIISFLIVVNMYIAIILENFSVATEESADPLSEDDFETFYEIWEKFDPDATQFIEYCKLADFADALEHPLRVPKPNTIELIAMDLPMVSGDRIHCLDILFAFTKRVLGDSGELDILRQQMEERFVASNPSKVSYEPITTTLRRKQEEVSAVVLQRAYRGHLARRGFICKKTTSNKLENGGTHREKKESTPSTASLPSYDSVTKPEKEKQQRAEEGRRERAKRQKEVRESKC
Procedure: To determine the role of compounds of the invention in Nav1.6 channels alone and Nav1.6 channels in the presence of FGF14, 2×2 experimental groups using compound ZL0181, an exemplary embodiment, were designed. HEK-Nav1.6 cells were transiently transfected with GFP or […] and treated with either DMSO (0.15% final concentration, control group) or ZL0181 (20 μM, final concentration) 20-60 min prior to the experiments. […] Thus, ZL0181 inhibits peak current amplitude of Na1.6 current.
Furthermore, using a range of doses from 1 μM to 100 μM a dose-response profile for ZL0181 in HEK293-Nav1.6 cells alone and HEK-Nav1.6 cells transfected with FGF14 was developed.
as §1, §2

With `CC(C)C[C@H](NC(=O)[C@H](Cc1ccccc1)NC(=O)OCc1ccccc1)C(=O)N1CCC[C@H]1C(=O)N[C@@H](CCCCNC(=O)OC(C)(C)C)C(N)=O` [ZL0181, Z-Phe-Leu-Pro-Lys(Boc)-NH2] (Cbz-FLPK(Boc)-NH2) the “peak current amplitude in Nav1.1 channels” value [1] was “suppresses peak current amplitude”, the “synergy with FGF14 on Na+ current and rescue of V1/2 of inactivation, Nav1.1” value ([1]; in presence of FGF14) was “does neither act synergistically to further suppress Na+ current in presence of FGF14 or rescue the voltage-dependence inactivation property” and the number of spikes ([2]; 50 μM for one hour, current step of 150 pA, n=10, DMSO 18.4±1.3) was 6.9±2.3. The “action potential current threshold” value ([2]; 50 μM for one hour, n=10, DMSO 72.5±11.5) was 135.8±12.5 pA, the “action potential voltage threshold” value ([2]; 50 μM for one hour, n=10, DMSO −35.9±2.3) was −27.8±2 mV and the “further neuronal active and passive properties” value ([2]; 50 μM, compared to DMSO control) was “no significant changes”. For the same molecule, the “activation and inactivation properties of Nav channel alone” value ([3]; 20 μM, HEK-Nav1.6 cells with GFP) was “does not change activation and inactivation properties”, the IC50 ([3]; HEK293-Nav1.6 cells alone, doses 1 μM to 100 μM, read-out: IC50, inhibition of Nav1.6 encoded currents) was 19.7 ± 5.7 µM and the “Nav1.6-mediated peak current density” value ([3]; HEK-Nav1.6 cells with GFP, pretreated with 20 μM, n=12, DMSO control −73.8±13.6) was −20.9±3.4 pA/pF.
